Measurements published in PubChem BioAssay (NCI).
Values joined by “and” are separate entries in the source; they are usually repeats but may differ in a detail not shown here. Identical values can stand only once.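 Compound exposure: 48 hours, 5 concentrations, 96-well plates. GI50 marks 50% less growth. TGI marks complete inhibition of growth.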

What was measured:
Test in all cases: NCI tumour cell line growth inhibition, 48 h
A549 NSCLC = system: A549 NSCLC
SK-MEL-28 melanoma = system: SK-MEL-28 melanoma
M14 melanoma = system: M14 melanoma
KM12 colon = system: KM12 colon
IGROV1 ovarian = system: IGROV1 ovarian
SF-295 CNS = system: SF-295 CNS
MDA-MB-435 = system: MDA-MB-435
UACC-257 melanoma = system: UACC-257 melanoma
A498 renal = system: A498 renal
SK-OV-3 ovarian = system: SK-OV-3 ovarian

Row | SMILES | GI50 (A549 NSCLC) | TGI (A549 NSCLC) | GI50 (SK-MEL-28 melanoma) | TGI (SK-MEL-28 melanoma) | GI50 (M14 melanoma) | TGI (M14 melanoma) | GI50 (KM12 colon) | TGI (KM12 colon) | GI50 (IGROV1 ovarian) | TGI (IGROV1 ovarian) | GI50 (SF-295 CNS) | TGI (SF-295 CNS) | GI50 (MDA-MB-435) | TGI (MDA-MB-435) | GI50 (UACC-257 melanoma) | TGI (UACC-257 melanoma) | GI50 (A498 renal) | TGI (A498 renal) | GI50 (SK-OV-3 ovarian) | TGI (SK-OV-3 ovarian)
1 | O=C(Nc1ccc(F)cc1)c1c(NC(=O)C(F)(F)F)sc2c1CCCCC2 | 2.64 µM | 12 µM | 2.11 µM | 13.9 µM | 2.91 µM | 13.4 µM | 1.96 µM | 9.23 µM | 2.99 µM | 15.5 µM | 1.01 µM | 3.26 µM | 2.69 µM | 17 µM | 2.21 µM | 7.17 µM | 0.0527 µM | 0.752 µM | 2.05 µM | 6.37 µM
2 | COc1cc2c3c(c1)c1cc(OC)c(OC)cc1c[n+]3CC2 | 76.7 µM | > 100 µM | 32.8 µM | 50 µM and > 100 µM | 63.8 µM | > 100 µM | 5.69 µM | 19.3 µM and 69.9 µM | – | 50 µM and > 100 µM | – | 50 µM and > 100 µM | 44.2 µM | 50 µM and > 100 µM | 15.9 µM | 50 µM and 64.7 µM | > 100 µM | > 100 µM | 89.5 µM | > 100 µM
3 | Cn1ncc2c(N)nc(N3CCCCC3)nc21 | 66.1 µM | > 100 µM | 24.1 µM | > 100 µM | 42.6 µM | > 100 µM | 26.2 µM | 82.8 µM | 33.9 µM | > 100 µM | 26.5 µM | > 100 µM | 24.1 µM | 81.4 µM | 54.4 µM | > 100 µM | 18.5 µM | 42.9 µM | 22.5 µM | > 100 µM
4 | Cc1nc2ccc(Nc3nc(NCCN4CCOCC4)nc(Nc4ccc(F)cc4)n3)cc2n1Cc1ccccc1 | 3.69 µM | > 100 µM | 1.56 µM | 2.94 µM | 1.86 µM | 3.66 µM | 3.82 µM | 19.9 µM | 5.59 µM | 46 µM | 1.49 µM | 2.93 µM | 2.23 µM | 6.25 µM | 1.74 µM | 3.27 µM | 1.35 µM | 5.13 µM | 4.48 µM | 17.3 µM
5 | Cn1c(=O)c(Oc2ccccc2F)cc2cnc(NC3CCOCC3)nc21 | > 25 µM | > 25 µM | > 25 µM | > 25 µM | > 25 µM | > 25 µM | > 25 µM | > 25 µM | > 25 µM | > 25 µM | > 25 µM | > 25 µM | > 25 µM | > 25 µM | > 25 µM | > 25 µM | > 14.7 µM | > 25 µM | > 25 µM | > 25 µM
6 | N#Cc1c(-c2ccccc2)cc(-c2ccc(Nc3nc(Nc4ccc(Cl)cc4)nc(Nc4ccc(Cl)cc4)n3)cc2)nc1N | 11 µM | > 100 µM | 1.22 µM | 2.8 µM | 1.79 µM | 3.67 µM | 2.91 µM | 11.4 µM | 1.34 µM | 2.67 µM | 10.3 µM | 43.6 µM | 2.8 µM | 14.1 µM | 1.92 µM | 4.47 µM | 1.28 µM | 8.72 µM | 21.3 µM | 55 µM
7 | COc1ccccc1NC(=O)n1nc(N)c2ccccc21 | > 86.9 µM | > 100 µM | > 100 µM | > 100 µM | > 100 µM | > 100 µM | 47.4 µM | > 100 µM | 14.7 µM | > 100 µM | 52.1 µM | > 100 µM | > 100 µM | > 100 µM | > 100 µM | > 100 µM | > 68.7 µM | > 100 µM | > 100 µM | > 100 µM
8 | OCCSCc1ccccc1 | – | > 100 µM | – | > 100 µM | – | > 100 µM | – | > 100 µM | – | > 100 µM | – | > 100 µM | – | > 100 µM | – | > 100 µM | – | > 100 µM | – | > 100 µM
9 | Cc1cc(C)c(C[N+](C)(C)C)c(C)c1C | 0.281 µM | 39.1 µM | 0.365 µM | 23.5 µM | 0.374 µM | 11.1 µM | 0.33 µM | 24.2 µM | 0.477 µM | > 95.7 µM | 0.255 µM | 7.25 µM | 0.328 µM | 12.5 µM | 0.465 µM | 6.69 µM | 0.729 µM | 8.66 µM | 0.499 µM | 11.2 µM
